Results on eight compounds are retold here after PubChem BioAssay (NCI).

Structures are written as SMILES. Several values for one entry are separate records, joined by “and”; a condition that tells them apart may be missing. Equal values may be shown once.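 All cell lines were grown in 96-well plates and treated with compound for 48 hours. GI50 marks 50% less growth. TGI: total growth inhibition.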

Test systems include RXF 393 renal; SF-268 CNS; CCRF-CEM leukemia; UACC-257 melanoma; HT29 colon; ACHN renal; RPMI-8226 leukemia; SK-MEL-5 melanoma; OVCAR-8 ovarian; HOP-62 NSCLC.
What all share (experiment): DTP human tumour cell line panel, 48 h

On to `O=C(NCCc1ccccc1)C(c1csc2ccccc12)N(C(=O)CCl)c1ccc(-c2cnco2)cc1` (centres undefined), for which the GI50 was 145 nM in the assay with RXF 393 renal; 362 nM in the assay on SF-268 CNS; 22.9 nM with CCRF-CEM leukemia; 1630 nM in the assay on UACC-257 melanoma; 257 nM in the assay on HT29 colon; 139 nM in the assay with ACHN renal. Moreover, the concentration for 50% growth inhibition (GI50) in the assay on RPMI-8226 leukemia is 171 nM; in the assay on SK-MEL-5 melanoma, 1620 nM; in the assay with OVCAR-8 ovarian, 169 nM; with HOP-62 NSCLC it was 347 nM. The TGI amounted to 587 nM with RXF 393 renal; 958 nM with SF-268 CNS; 59.4 nM in the assay with CCRF-CEM leukemia; 3170 nM with UACC-257 melanoma; 1060 nM in the assay with HT29 colon; 537 nM in the assay on ACHN renal. Further, the TGI was 474 nM with RPMI-8226 leukemia, 3010 nM with SK-MEL-5 melanoma, 1280 nM with OVCAR-8 ovarian and 1070 nM with HOP-62 NSCLC.

As to `CN1CCN(c2nc(C3=C(c4c[nH]c5ccccc45)C(=O)NC3=O)c3ccccc3n2)CC1`, the GI50 is 12800 nM and 16300 nM with RXF 393 renal; 17200 nM and 17700 nM in the assay on SF-268 CNS; 28900 nM and 14000 nM in the assay with CCRF-CEM leukemia; 11200 nM and 15700 nM with UACC-257 melanoma; 14000 nM and 12300 nM in the assay on HT29 colon; 14900 nM and 20400 nM in the assay on ACHN renal. The GI50 is 12600 nM in the assay with RPMI-8226 leukemia; 11200 nM and 12600 nM in the assay with SK-MEL-5 melanoma; 17200 nM and 18400 nM in the assay on OVCAR-8 ovarian; 13600 nM and 19800 nM with HOP-62 NSCLC. Also, the TGI with RXF 393 renal is 22600 nM and 31200 nM; in the assay on SF-268 CNS it was 40600 nM and 36600 nM; in the assay with CCRF-CEM leukemia it was 65000 nM and 62800 nM; in the assay with UACC-257 melanoma, 23100 nM and 31300 nM; in the assay on HT29 colon, 65000 nM and 43400 nM; in the assay with ACHN renal, 52400 nM and > 100000 nM. Moreover, the TGI with RPMI-8226 leukemia is 37600 nM; in the assay on SK-MEL-5 melanoma it was 20300 nM and 26000 nM; in the assay on OVCAR-8 ovarian, 65000 nM and 57500 nM; in the assay with HOP-62 NSCLC, 65000 nM and 42900 nM.

Turning to `O=C(O)C(=O)/C=C\c1ccc(Cl)cc1`, the TGI in the assay with RXF 393 renal, with SF-268 CNS, with CCRF-CEM leukemia, in the assay on UACC-257 melanoma, in the assay on HT29 colon and with ACHN renal was more than 100000 nM in each case. Besides, the TGI in the assay on RPMI-8226 leukemia, in the assay on SK-MEL-5 melanoma, with OVCAR-8 ovarian and with HOP-62 NSCLC was more than 100000 nM throughout.

In the case of `NNC(=S)N/N=C(\c1nc2ccc(Cl)cc2[nH]c1=O)C(O)c1ccc(Cl)cc1Cl` (centres undefined), the concentration for total growth inhibition (TGI) in the assay on RXF 393 renal, in the assay with SF-268 CNS, in the assay with CCRF-CEM leukemia, with UACC-257 melanoma, in the assay with HT29 colon and in the assay on ACHN renal was more than 100000 nM throughout. For the same compound, the TGI in the assay on RPMI-8226 leukemia, in the assay with SK-MEL-5 melanoma, in the assay on OVCAR-8 ovarian and in the assay on HOP-62 NSCLC was more than 100000 nM each time.

As for `S=c1sc2ccccc2n1CN1CCN(Cc2ccccc2)CC1`, the total growth inhibition concentration (TGI) with RXF 393 renal, with SF-268 CNS, in the assay with CCRF-CEM leukemia, with UACC-257 melanoma, in the assay with HT29 colon and in the assay with ACHN renal was more than 100000 nM each time. The concentration for total growth inhibition (TGI) with RPMI-8226 leukemia, with SK-MEL-5 melanoma, in the assay on OVCAR-8 ovarian and in the assay on HOP-62 NSCLC was more than 100000 nM throughout.

In the case of `NS(=O)(=O)OC[C@H]1O[C@@H](n2cnc3c(N[C@H]4CCc5ccccc54)ncnc32)[C@H](O)[C@@H]1O`, the GI50 in the assay on RXF 393 renal was 258 nM; with SF-268 CNS it was 122 nM; with CCRF-CEM leukemia, 41.9 nM; in the assay on UACC-257 melanoma it was 213 nM; in the assay with HT29 colon it was 327 nM; with ACHN renal it was 167 nM. Moreover, the GI50 in the assay with RPMI-8226 leukemia was 3360 nM; in the assay on SK-MEL-5 melanoma, 36.9 nM; in the assay on OVCAR-8 ovarian, 86.5 nM; in the assay on HOP-62 NSCLC it was 56.9 nM. The TGI in the assay with RXF 393 renal is 506 nM; in the assay on SF-268 CNS, 449 nM; in the assay with CCRF-CEM leukemia, more than 100000 nM; in the assay with UACC-257 melanoma it was 577 nM; in the assay on HT29 colon it was 5550 nM; in the assay with ACHN renal, 570 nM. Moreover, the TGI in the assay with RPMI-8226 leukemia worked out at 28100 nM; in the assay with SK-MEL-5 melanoma it was 151 nM; with OVCAR-8 ovarian it was 1020 nM; in the assay on HOP-62 NSCLC it was 485 nM.

Regarding `CCCCCc1c(C)[nH]c(/C=C2\N=C(c3ccc[nH]3)C=C2Oc2ccc(OC)cc2)c1C`, the GI50 in the assay with RXF 393 renal is 120 nM and 29.4 nM; with SF-268 CNS it was 154 nM and 52.6 nM; in the assay on CCRF-CEM leukemia it was 25.7 nM; with UACC-257 melanoma, 125 nM; in the assay with HT29 colon it was 68 nM and 21.4 nM; with ACHN renal, 180 nM and 48.2 nM. Further, the concentration for 50% growth inhibition (GI50) in the assay with RPMI-8226 leukemia is 89.6 nM and 31.3 nM; in the assay on SK-MEL-5 melanoma, 84.4 nM and 18.7 nM; with OVCAR-8 ovarian, 180 nM and 41.2 nM; in the assay on HOP-62 NSCLC it was 159 nM and 76.8 nM. Also, the concentration for total growth inhibition (TGI) in the assay on RXF 393 renal is 567 nM and 244 nM; with SF-268 CNS, 1920 nM and 1460 nM; with CCRF-CEM leukemia it was more than 100000 nM; in the assay on UACC-257 melanoma, 998 nM; in the assay with HT29 colon it was 1940 nM and 1260 nM; in the assay on RPMI-8226 leukemia, 1130 nM and 332 nM. The TGI with SK-MEL-5 melanoma is 217 nM and 46.6 nM; in the assay on OVCAR-8 ovarian, 1120 nM and 207 nM; in the assay with HOP-62 NSCLC, 1690 nM and 1490 nM.

In the case of `C=CC[n+]1c(/C=C2\Sc3ccccc3N2C)sc(-c2ccccc2)c1-c1ccccc1`, the GI50 with RXF 393 renal is 519 nM; in the assay with SF-268 CNS it was 405 nM; with CCRF-CEM leukemia it was 353 nM; in the assay on UACC-257 melanoma, 239 nM; in the assay with HT29 colon it was 306 nM; in the assay on ACHN renal it was 1700 nM. Besides, the GI50 with RPMI-8226 leukemia was 250 nM; in the assay on SK-MEL-5 melanoma, 173 nM; in the assay on OVCAR-8 ovarian, 338 nM; in the assay on HOP-62 NSCLC, 302 nM. For the same compound, the TGI in the assay with RXF 393 renal turned out to be 8940 nM; with SF-268 CNS it was 15600 nM; with CCRF-CEM leukemia, 11800 nM; with UACC-257 melanoma, 737 nM; with HT29 colon, 6100 nM; in the assay with ACHN renal it was 10200 nM. Moreover, the TGI in the assay with RPMI-8226 leukemia stood at 987 nM; with SK-MEL-5 melanoma, 320 nM; with OVCAR-8 ovarian it was 10900 nM; in the assay on HOP-62 NSCLC, 4750 nM.

The GI50 is the concentration giving 50% growth inhibition. Broadly, the TGI is the concentration giving total growth inhibition. Read a high TGI as lower sensitivity of the cells.
